Assay results taken from patent publication US8598202B2, “Aryl-hydroxyethylamino-pyrimidines and triazines as modulators of fatty acid amide hydrolase” (Janssen Pharmaceutica NV, priority 2008, dated 2013).
Structures can show the parent of a compound that is named as a salt.

target: T1, Rat FAAH-1 (Rattus norvegicus, UniProt P97612); assay: Assay Method 2: rat FAAH-1 assay, 3H-anandamide hydrolysis in homogenate of SK-N-MC cells transfected with rat FAAH; details: not given
T1 sequence (P97612 1-579): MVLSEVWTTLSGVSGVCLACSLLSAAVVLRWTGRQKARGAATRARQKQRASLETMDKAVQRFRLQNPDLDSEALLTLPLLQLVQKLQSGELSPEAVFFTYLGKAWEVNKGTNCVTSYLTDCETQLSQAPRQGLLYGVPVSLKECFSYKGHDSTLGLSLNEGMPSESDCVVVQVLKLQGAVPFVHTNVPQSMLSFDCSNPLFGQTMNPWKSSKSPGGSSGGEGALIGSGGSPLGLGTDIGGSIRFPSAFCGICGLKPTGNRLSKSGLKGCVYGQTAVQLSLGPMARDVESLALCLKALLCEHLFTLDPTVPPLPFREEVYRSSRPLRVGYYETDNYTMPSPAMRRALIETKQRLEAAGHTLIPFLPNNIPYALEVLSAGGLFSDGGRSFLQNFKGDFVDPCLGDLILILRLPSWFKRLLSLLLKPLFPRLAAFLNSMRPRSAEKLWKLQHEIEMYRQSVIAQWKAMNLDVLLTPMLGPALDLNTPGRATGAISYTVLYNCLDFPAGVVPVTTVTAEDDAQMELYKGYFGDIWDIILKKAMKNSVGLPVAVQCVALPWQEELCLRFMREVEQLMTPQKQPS

SMILES	IC50 [nM]
OC(CNc1cc(-c2ccc(C(F)(F)F)c(Cl)c2)ncn1)c1nccs1 (stereo not drawn) [Example 169, 2-({6-[3-Chloro-4-(trifluoromethyl)phenyl]pyrimidin-4-yl}amino)-1-(1,3-thiazol-2-yl)ethanol]	8000
CN(C)CCNc1nc(NC[C@H](O)c2ccccc2)cc(-c2ccc(C(F)(F)F)c(Cl)c2)n1 [Example 158, (1R)-2-[(6-[3-Chloro-4-(trifluoromethyl)phenyl]-2-{[2-(dimethylamino)ethyl]amino}pyrimidin-4-yl)amino]-1-phenylethanol trifluoroacetic acid salt]	110
N#Cc1cc(-c2cc(NC[C@H](O)c3ccccc3)ncn2)ccc1F [Example 89, 2-Fluoro-5-(6-{[(2R)-2-hydroxy-2-phenylethyl]amino}pyrimidin-4-yl)benzonitrile trifluoroacetic acid salt]	1400
O[C@@H](CNc1cc(-c2ccc(C(F)(F)F)c(Cl)c2)nc(N2CCC2)n1)c1ccccc1 [Example 161, (1R)-2-({2-Azetidin-1-yl-6-[3-chloro-4-(trifluoromethyl)phenyl]pyrimidin-4-yl}amino)-1-Phenylethanol trifluoroacetic acid salt]	580
Cc1cc(-c2cc(NC[C@H](O)c3ccccc3)ncn2)cnc1F [Example 75, (1R)-2-{[6-(6-Fluoro-5-methylpyridin-3-yl)pyrimidin-4-yl]amino}-1-phenylethanol]	> 10000

The remaining lines, values ahead:

IC50 [nM]	SMILES
82	OC(CNc1cc(-c2ccc(C(F)(F)F)c(Cl)c2)ncn1)c1ccc2c(c1)OCCCO2 (stereo not drawn) [Example 204, 2-({6-[3-Chloro-4-(trifluoromethyl)phenyl]pyrimidin-4-yl}amino)-1-(3,4-dihydro-2H-1,5-benzodioxepin-7-yl)ethanol]
2000	COc1ccc(-c2cc(NC[C@H](O)c3ccccc3)ncn2)cn1 [Example 63, (1R)-2-{[6-(6-Methoxypyridin-3-yl)pyrimidin-4-yl]amino}-1-phenylethanol]
35	O[C@@H](CNc1cc(-c2ccc3c(C(F)(F)C(F)(F)F)noc3c2)ncn1)c1ccccc1 [Example 188, (1R)-2-({6-[3-(pentafluoroethyl)-1,2-benzisoxazol-6-yl]pyrimidin-4-yl}amino)-1-phenylethanol trifluoroacetic acid salt]

target: T2, FAAH (Homo sapiens, UniProt O00519); assay: Assay Method 1: FAAH assay, 3H-anandamide hydrolysis in homogenate of T84 cells or SK-N-MC cells transfected with human FAAH; details: not given
T2 sequence (O00519 1-579): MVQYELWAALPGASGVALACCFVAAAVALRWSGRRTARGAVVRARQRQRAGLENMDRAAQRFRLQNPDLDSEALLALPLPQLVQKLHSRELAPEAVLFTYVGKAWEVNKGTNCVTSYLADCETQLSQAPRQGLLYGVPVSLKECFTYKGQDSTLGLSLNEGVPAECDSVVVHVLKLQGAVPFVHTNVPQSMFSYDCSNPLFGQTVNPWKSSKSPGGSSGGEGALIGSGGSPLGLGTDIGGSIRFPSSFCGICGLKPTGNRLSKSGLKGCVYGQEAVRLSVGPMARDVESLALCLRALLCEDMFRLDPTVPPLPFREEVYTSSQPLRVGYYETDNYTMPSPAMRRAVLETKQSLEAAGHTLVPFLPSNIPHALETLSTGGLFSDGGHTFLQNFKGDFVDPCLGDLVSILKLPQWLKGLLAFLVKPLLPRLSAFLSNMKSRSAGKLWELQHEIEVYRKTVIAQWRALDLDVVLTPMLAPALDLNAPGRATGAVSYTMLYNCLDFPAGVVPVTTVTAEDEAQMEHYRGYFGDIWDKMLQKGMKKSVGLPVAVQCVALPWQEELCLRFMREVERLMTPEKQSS

SMILES	IC50 [nM]
OC(CNc1cc(-c2ccc(C(F)(F)F)c(Cl)c2)ncn1)c1nccs1 (stereo not drawn) [Example 169, 2-({6-[3-Chloro-4-(trifluoromethyl)phenyl]pyrimidin-4-yl}amino)-1-(1,3-thiazol-2-yl)ethanol]	6000
CN(C)CCNc1nc(NC[C@H](O)c2ccccc2)cc(-c2ccc(C(F)(F)F)c(Cl)c2)n1 [Example 158, (1R)-2-[(6-[3-Chloro-4-(trifluoromethyl)phenyl]-2-{[2-(dimethylamino)ethyl]amino}pyrimidin-4-yl)amino]-1-phenylethanol trifluoroacetic acid salt]	3460
N#Cc1cc(-c2cc(NC[C@H](O)c3ccccc3)ncn2)ccc1F [Example 89, 2-Fluoro-5-(6-{[(2R)-2-hydroxy-2-phenylethyl]amino}pyrimidin-4-yl)benzonitrile trifluoroacetic acid salt]	1600
O=Cc1cccc(-c2cc(NC[C@H](O)c3ccccc3)ncn2)c1 [Example 23, 3-(6-{[(2R)-2-Hydroxy-2-phenylethyl]amino}pyrimidin-4-yl)benzaldehyde]	5000
Nc1cccc(-c2cc(NCC(O)c3ccccc3)ncn2)c1 (stereo not drawn) [Example 240, 2-[6-(3-Amino-phenyl)-pyrimidin-4-ylamino]-1-phenyl-ethanol]	> 10000
Oc1ccc(C(O)CNc2cc(-c3ccc(OC(F)(F)F)cc3)ncn2)cc1 (stereo not drawn) [Example 110, 4-{1-Hydroxy-2-[(6-{4-[(trifluoromethyl)oxy]phenyl}pyrimidin-4-yl)amino]ethyl}phenol]	5000
CCCCOc1ccc(-c2cc(NC[C@H](O)c3ccccc3)ncn2)cc1 [Example 34, (1R)-2-{[6-(4-Butoxyphenyl)pyrimidin-4-yl]amino}-1-phenylethanol trifluoroacetic acid salt]	500
OC(CNc1cc(-c2ccccc2)ncn1)c1ccccc1 (stereo not drawn) [Example 243, 1-Phenyl-2-(6-phenyl-pyrimidin-4-ylamino)-ethanol]	> 10000
Cc1cccc(-c2cc(NCC(O)c3ccccc3)ncn2)c1 (stereo not drawn) [Example 148, 2-{[6-(3-Methylphenyl)pyrimidin-4-yl]amino}-1-phenylethanol]	3000
CC(O)(CNc1cc(-c2ccc(C(F)(F)F)c(Cl)c2)ncn1)c1ccccc1 (stereo not drawn) [Example 166, 1-({6-[3-Chloro-4-(trifluoromethyl)phenyl]pyrimidin-4-yl}amino)-2-Phenylpropan-2-ol]	3000
C[S+]([O-])c1nc(NC[C@H](O)c2ccccc2)cc(-c2ccc(C(F)(F)F)c(Cl)c2)n1 (stereo partly drawn) [Example 139, (1R)-2-({6-[3-Chloro-4-(trifluoromethyl)phenyl]-2-(methylsulfinyl)pyrimidin-4-yl}amino)-1-phenylethanol]	2000

Continued, values first:

IC50 [nM]	SMILES
1400	Cc1cc(-c2cc(NC[C@H](O)c3ccccc3)ncn2)cc(C)c1OC(C)C [Example 52, (1R)-2-({6-[3,5-Dimethyl-4-(1-methylethoxy)phenyl]pyrimidin-4-yl}amino)-1-phenylethanol trifluoroacetic acid salt]
850	CCCOc1cccc(-c2cc(NC[C@H](O)c3ccccc3)ncn2)c1 [Example 98, (1R)-1-Phenyl-2-{[6-(3-propoxyphenyl)pyrimidin-4-yl]amino}ethanol]
700	OC(CNc1cc(-c2ccc(OC(F)(F)F)cc2)ncn1)c1ccccn1 (stereo not drawn) [Example 123, 1-Pyridin-2-yl-2-[(6-{4-[(trifluoromethyl)oxy]phenyl}pyrimidin-4-yl)amino]ethanol]
580	CCOc1cccc(-c2cc(NC[C@H](O)c3ccccc3)ncn2)c1 [Example 97, (1R)-2-{[6-(3-Ethoxyphenyl)pyrimidin-4-yl]amino}-1-phenylethanol]
548	OC(CNc1cc(-c2ccc(C(F)(F)F)c(Cl)c2)ncn1)c1ccc2c(c1)OCCCO2 (stereo not drawn) [Example 204, 2-({6-[3-Chloro-4-(trifluoromethyl)phenyl]pyrimidin-4-yl}amino)-1-(3,4-dihydro-2H-1,5-benzodioxepin-7-yl)ethanol]
467	OC(CNc1cc(-c2cccc(Cl)c2)ncn1)c1ccccc1 (stereo not drawn) [Example 9, 2-{[6-(3-Chlorophenyl)pyrimidin-4-yl]amino}-1-Phenylethanol]
450	COc1ccc(-c2cc(NC[C@H](O)c3ccccc3)ncn2)cn1 [Example 63, (1R)-2-{[6-(6-Methoxypyridin-3-yl)pyrimidin-4-yl]amino}-1-phenylethanol]
412	OC(CNc1cc(-c2cccc(OC(F)(F)F)c2)ncn1)c1ccccc1 (stereo not drawn) [Example 149, 1-Phenyl-2-[(6-{3-[(trifluoromethyl)oxy]phenyl}pyrimidin-4-yl)amino]ethanol]
408	COc1ccc(-c2cc(NCC(O)c3ccccc3)ncn2)cc1OC (stereo not drawn) [Example 229, 2-[6-(3,4-Dimethoxy-phenyl)-pyrimidin-4-ylamino]-1-phenyl-ethanol]
390	O[C@@H](CNc1cc(-c2cccc(OCC(F)(F)F)c2)ncn1)c1ccccc1 [Example 25, (1R)-1-Phenyl-2-[(6-{3-[(2,2,2-trifluoroethyl)oxy]phenyl}pyrimidin-4-yl)amino]ethanol]
371	CS(=O)(=O)c1nc(NC[C@H](O)c2ccccc2)cc(-c2ccc(C(F)(F)F)c(Cl)c2)n1 [Example 138, (1R)-2-({6-[3-Chloro-4-(trifluoromethyl)phenyl]-2-(methylsulfonyl)pyrimidin-4-yl}amino)-1-phenylethanol]
303	COc1cc(OC(F)(F)F)ccc1-c1cc(NC[C@H](O)c2ccccc2)ncn1 [Example 153, (1R)-2-({6-[2-Methoxy-4-(trifluoromethoxy)phenyl]pyrimidin-4-yl}amino)-1-phenylethanol trifluoroacetic acid salt]
205	COc1ccc(-c2cc(NCC(O)c3ccccc3)ncn2)cc1 (stereo not drawn) [Example 147, 2-({6-[4-(Methyloxy)phenyl]pyrimidin-4-yl}amino)-1-phenylethanol]
101	O[C@@H](CNc1cc(-c2cnn(Cc3ccccc3)c2)ncn1)c1ccccc1 [Example 74, (1R)-2-{[6-(1-Benzyl-1H-pyrazol-4-yl)pyrimidin-4-yl]amino}-1-phenylethanol]
65	CCOc1ccc(-c2cc(NC[C@H](O)c3ccccc3)ncn2)c(C)c1 [Example 154, (1R)-2-{[6-(4-Ethoxy-2-methylphenyl)pyrimidin-4-yl]amino}-1-phenylethanol trifluoroacetic acid salt]
35	OC(CNc1cc(-c2ccc(Oc3ccccc3)cc2)ncn1)c1ccccc1 (stereo not drawn) [Example 13, 1-Phenyl-2-({6-[4-(phenyloxy)phenyl]pyrimidin-4-yl}amino)ethanol]
24	O[C@@H](CNc1cc(-c2ccc3c(C(F)(F)C(F)(F)F)noc3c2)ncn1)c1ccccc1 [Example 188, (1R)-2-({6-[3-(pentafluoroethyl)-1,2-benzisoxazol-6-yl]pyrimidin-4-yl}amino)-1-phenylethanol trifluoroacetic acid salt]
20	O=S(=O)(NC1CC1)c1ccc(-c2cc(NC[C@H](O)c3ccccc3)ncn2)cc1 [Example 67, N-Cyclopropyl-4-(6-{[(2R)-2-hydroxy-2-phenylethyl]amino}pyrimidin-4-yl)benzenesulfonamide]

same assay, conditions: read-out: Assay 1 IC50; Table 2, Comparative Examples; human FAAH

IC50 [nM]	SMILES
> 10000	OC(CNc1cc(-c2ccccc2)ncn1)c1ccccc1 (stereo not drawn) [CE3, 1-Phenyl-2-(6-phenyl-pyrimidin-4-ylamino)-ethanol, reference compound]
> 10000	Nc1cccc(-c2cc(NCC(O)c3ccccc3)ncn2)c1 (stereo not drawn) [CE8, 2-[6-(3-Amino-phenyl)-pyrimidin-4-ylamino]-1-phenyl-ethanol, reference compound]
